Measured values: paper PMC7363588, “Mapping of the FGF14:Nav1.6 complex interface reveals FLPK as a functionally active peptide modulating excitability” (Physiological Reports, 2020)
Peptide text beside a SMILES is read from it.

Tests used:
[1] = system: FGF14^Y158A:Nav1.6 complex; experiment: LCA, CLuc-FGF14^Y158A; format: cell-based, human; conditions: 50 µM peptide, 12 hr, HEK293, vs DMSO
FGF14 = biological target: T1, FGF14 (Homo sapiens, UniProt Q92915); experiment: SPR binding to FGF14; conditions: for binding to FGF14: SPR
T1 construct: aa 64–252); 6X His (N); made in house; host or cells: E. coli BL21 (DE3) pLys
T1 sequence (Q92915 64-252 isoform Q92915-2): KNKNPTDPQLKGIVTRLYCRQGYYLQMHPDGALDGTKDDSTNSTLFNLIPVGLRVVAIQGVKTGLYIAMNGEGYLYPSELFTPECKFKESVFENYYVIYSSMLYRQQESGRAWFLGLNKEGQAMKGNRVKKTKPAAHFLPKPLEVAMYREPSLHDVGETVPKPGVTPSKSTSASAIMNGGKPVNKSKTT
From the text: Plasmids used in this study derived from the following clones: human FGF14‐1b isoform (accession number: NM_175929.2) and human Nav1.6 (accession number: NM_014191.3). The CLuc‐FGF14, CD4‐Nav1.6‐NLuc, constructs and the pcDNA3.1 vector (Invitrogen, Carlsbad, CA) were engineered and characterized as previously described (Goetz et al., 2009; Shavkunov et al., 2012,2013,2015; Ali et al., 2016, 2018; Wadsworth et al., 2019). The plasmid pGL3 expressing full length Firefly (Photinus pyralis) luciferase was a gift from Dr. P. Sarkar (Department of Neurology, UTMB). For protein purification studies, cDNAs encoding FGF14‐1b (accession number NP_787125; aa 64–252) or the C‐terminal tail of Nav1.6 (accession number #NP_001171455; aa 1756–1939) were subcloned into suitable pET bacterial expression vectors (pET28a‐FGF14; pET30a‐Nav1.6) with a 6X His‐tag at the N‐terminal site; these plasmids were a gift of Dr. Moosa Mohammadi (NYU, Langone Medical Center). The mutation coding for FGF14^V160A was generated by site‐directed mutagenesis and PCR using FGF14‐1b as a template described previously (Ali et al., 2016). For electrophysiological studies FGF14‐GFP (human) and FGF14‐ΔNT‐GFP (human) were cloned into the GFP plasmid (pQBI‐fC2; Quantum Biotechnology Inc., Montreal, Canada) as previously described.
Upon transformation with corresponding cDNA clones, the recombinant proteins FGF14, FGF14^V160A and Nav1.6 C‐terminal tail were expressed in E. coli BL21 (DE3) pLys (Invitrogen) after induction with 0.1 mM isopropyl thio‐β‐D‐galacto‐pyranoside (IPTG) for 24 hr at 16°C. After induction with IPTG, bacterial cells were harvested and lysed by sonication at 4°C in lysis/binding buffer containing following components (mM): sodium phosphate 10 (prepared from 0.5 M of Na2HPO4 and NaH2PO4) + 3‐cholamidopropyl dimethylammonio 1‐propanesulfonate 0.1% pH 7.0 (for FGF14 proteins) + HEPES 25 + NaCl 150 + glycerol 10% (Nav1.6) pH 7.5 and containing 0.1 mM phenyl methyl sulphonyl fluoride (PMSF). The respective proteins were centrifuged at 18,000 g for 30 min at 4°C. For purification of FGF14 and FGF14^V160A, the supernatant was applied to preequilibrated heparin and the proteins were then eluted with NaCl 0.2–2.0 M in the elution (sodium phosphate 10 mM + NaCl 0.2–2.0 M pH 7.0) buffer. For purification of the Nav1.6 C‐tail, the supernatant was applied first to Ni^2+ NTA column and eluted with imidazole (200 mM). The Nav1.6 C‐tail was further purified using HiTrap QFF‐sepharose column (GE Healthcare Bio‐Sciences, Pittsburgh, PA) with a buffer containing Tris‐HCl 50 mM and eluted with NaCl (10–500 mM) at pH 7.5. Finally, all concentrated proteins were purified on an AKTA FPLC purifier using Superdex 200 Hiload 16 × 60 columns (GE Healthcare Bio‐Sciences) and equilibrated in Tris‐HCl 50 mM + NaCl 150 mM, pH 7.5 (Ali et al., 2016; Scala et al., 2018).
SPR experiments were performed on a Biacore T100 (GE Healthcare Bio‐Sciences, Pittsburgh, PA), and the interaction of FGF14 and Nav1.6 channel toward FLPK, PLEV and EYYV (1–100 µM) were studied at 25°C. To analyze the effects of FLPK, PLEV and EYYV on FGF14^WT (RU 16,000), FGF14^V160A (RU 18,000) and Nav1.6 C‐tail (RU 12,000), the proteins were immobilized on CM5 sensor chip using Acetate 5.5 with Amine Coupling Kit (Biacore GE Healthcare Bio‐Sciences). No protein was coupled to the control flow channel of the chip. Using a flow rate of 50 µl/min, FLPK, PLEV and EYYV (1–100 µM) diluted in HBS‐P^+ buffer were injected over the chip for 180 s, followed by injection of HBS‐P+ for 180 s to monitor dissociation, and finally the chip surface was regenerated with NaCl (200 mM). For each peptide injection, nonspecific responses (buffer only) were subtracted from experimental sensograms/traces prior to data analysis. Maximal equilibrium responses were plotted against peptide concentrations and association rate constant (kon), dissociation rate constatnt (koff) were determined. […]

[2] = Biacore T100, CM5, 25°C, peptide 1–100 µM in HBS-P+ pH 7.4, FGF14 RU 16,000, N.M. = not measurable

Row | Compound | effect on FGF14^Y158A:Nav1.6 complex formation [1] | koff, dissociation rate constant (FGF14; [2]) | kon, association rate constant (FGF14; [2]) | binding to FGF14 (FGF14; peptide 1–100 µM) | koff (FGF14; Biacore T100, CM5, 25°C, peptide 1–100 µM in HBS-P+ pH 7.4, FGF14 RU 16,000, N.M. = not measurable, read-out: koff, dissociation rate constant) | Kd (FGF14; Biacore T100, CM5, 25°C, peptide 1–100 µM, read-out: KD, equilibrium constant)
1 | EYYV [tetrapeptide previously designed from FGF14:FGF14 dimer interface; docked with N-terminal acetylation and C-terminal amidation] | increased the inhibition | N.M. | N.M. | no appreciable affinity to either protein was detected |  | 
2 | CC(=O)N[C@@H](Cc1ccccc1)C(=O)N[C@@H](CC(C)C)C(=O)N1CCC[C@H]1C(=O)N[C@@H](CCCCN)C(N)=O [FLPK] (Ac-FLPK-NH2) | abolished the effect of FLPK |  |  | only FLPK exhibited measurable affinity | 0.000431 s⁻¹ | 4.97 µM
3 | PLEV [tetrapeptide previously designed from FGF14:FGF14 dimer interface; docked with N-terminal acetylation and C-terminal amidation] | increased the inhibition | N.M. | N.M. | no appreciable affinity to either protein was detected |  | 
